Where two headings read alike, the source gives them in different places.
Key:
[1] = biological target: T1, Thiopurine S-methyltransferase (h) (Homo sapiens, UniProt P51580); assay: Epigenetic enzyme assay, Small molecule methyltransferases; format: biochemical; settings: read-out: % Inhibition of Control Values
T1 sequence (P51580 1-245): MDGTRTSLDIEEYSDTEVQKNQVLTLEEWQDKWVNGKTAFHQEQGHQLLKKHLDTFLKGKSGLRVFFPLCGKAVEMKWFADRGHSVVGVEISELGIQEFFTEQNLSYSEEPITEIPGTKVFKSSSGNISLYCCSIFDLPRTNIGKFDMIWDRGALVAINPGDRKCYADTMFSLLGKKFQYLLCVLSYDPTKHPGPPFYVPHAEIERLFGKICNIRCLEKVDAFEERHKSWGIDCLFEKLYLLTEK

[2] = test system: HUVEC endothelium cells (normal cell line); assay: In vitro cell viability assay (intracellular ATP, 72 hour); format: cell-based; settings: HUVEC, Endothelium (Normal); 10 μM
[3] = biological target: MSK1(h) (substrate histone H3 full length) (Homo sapiens, UniProt O75582); assay: Epigenetic enzyme assay, Kinases; format: biochemical; settings: read-out: % Inhibition of Control Values
Chain of MSK1(h) (substrate histone H3 full length) (O75582 whole entry): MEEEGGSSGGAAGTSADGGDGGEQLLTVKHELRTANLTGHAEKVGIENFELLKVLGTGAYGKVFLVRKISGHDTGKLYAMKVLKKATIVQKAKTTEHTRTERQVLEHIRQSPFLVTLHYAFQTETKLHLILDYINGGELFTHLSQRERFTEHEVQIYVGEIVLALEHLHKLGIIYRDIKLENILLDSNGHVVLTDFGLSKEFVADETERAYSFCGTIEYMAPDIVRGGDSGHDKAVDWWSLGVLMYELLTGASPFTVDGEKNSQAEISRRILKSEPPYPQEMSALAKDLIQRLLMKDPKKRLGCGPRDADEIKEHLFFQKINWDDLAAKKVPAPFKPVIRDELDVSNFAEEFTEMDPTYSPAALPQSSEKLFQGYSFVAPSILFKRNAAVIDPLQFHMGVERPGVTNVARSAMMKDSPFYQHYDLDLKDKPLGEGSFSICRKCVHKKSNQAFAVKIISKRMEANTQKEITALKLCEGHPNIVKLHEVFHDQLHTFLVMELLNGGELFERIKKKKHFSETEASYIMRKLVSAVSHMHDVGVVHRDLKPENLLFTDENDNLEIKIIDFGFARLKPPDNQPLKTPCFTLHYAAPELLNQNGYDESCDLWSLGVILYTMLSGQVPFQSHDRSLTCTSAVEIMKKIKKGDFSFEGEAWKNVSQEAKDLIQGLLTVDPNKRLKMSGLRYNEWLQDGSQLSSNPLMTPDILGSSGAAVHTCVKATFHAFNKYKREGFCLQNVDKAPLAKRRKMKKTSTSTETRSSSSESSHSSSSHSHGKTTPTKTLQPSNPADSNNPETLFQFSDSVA

[4] = biological target: T2, KAT2A (GCN5L2) (h) bromodomain (Homo sapiens, UniProt Q92830); assay: Epigenetic binding assay, Bromodomain; settings: for inhibition at 10 µM: read-out: % Inhibition of Control Specific Binding
T2 construct: Bromodomain
T2 sequence (Q92830 728-832 limits assumed): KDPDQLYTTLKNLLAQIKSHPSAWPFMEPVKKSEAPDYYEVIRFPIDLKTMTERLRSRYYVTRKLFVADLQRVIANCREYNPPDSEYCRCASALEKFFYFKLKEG

[5] = biological target: hDNMT3a (Homo sapiens, UniProt Q9Y6K1); assay: Epigenetic enzyme assay, DNA methyltransferases (DNMTs); format: biochemical; settings: 10 μM; read-out: % Inhibition of Control Values
Chain of hDNMT3a (Q9Y6K1 whole entry, looked up): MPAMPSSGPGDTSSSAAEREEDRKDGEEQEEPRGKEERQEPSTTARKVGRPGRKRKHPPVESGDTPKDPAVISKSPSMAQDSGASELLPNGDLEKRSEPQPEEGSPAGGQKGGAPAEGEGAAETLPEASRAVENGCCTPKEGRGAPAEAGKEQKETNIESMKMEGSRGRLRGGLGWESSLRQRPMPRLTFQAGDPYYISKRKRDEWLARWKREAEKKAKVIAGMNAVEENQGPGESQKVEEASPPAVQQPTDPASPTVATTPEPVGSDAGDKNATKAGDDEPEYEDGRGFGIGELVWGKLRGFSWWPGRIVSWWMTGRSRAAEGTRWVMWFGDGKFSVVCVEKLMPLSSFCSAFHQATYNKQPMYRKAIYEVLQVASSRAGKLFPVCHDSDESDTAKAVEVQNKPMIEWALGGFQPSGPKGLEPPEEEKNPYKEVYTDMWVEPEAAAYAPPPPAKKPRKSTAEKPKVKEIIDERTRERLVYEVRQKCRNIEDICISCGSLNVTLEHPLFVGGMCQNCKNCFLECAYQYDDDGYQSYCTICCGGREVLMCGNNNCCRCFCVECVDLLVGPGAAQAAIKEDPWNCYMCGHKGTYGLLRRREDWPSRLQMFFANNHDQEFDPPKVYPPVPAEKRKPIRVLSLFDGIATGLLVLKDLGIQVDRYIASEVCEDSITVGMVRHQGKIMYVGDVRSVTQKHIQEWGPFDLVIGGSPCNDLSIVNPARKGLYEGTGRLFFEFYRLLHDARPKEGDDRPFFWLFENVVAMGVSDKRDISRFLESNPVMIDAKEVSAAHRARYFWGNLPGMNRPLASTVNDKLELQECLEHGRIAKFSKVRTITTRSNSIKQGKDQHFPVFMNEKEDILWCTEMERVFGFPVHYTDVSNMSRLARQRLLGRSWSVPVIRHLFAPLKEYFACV

[6] = biological target: SETDB1 (h) (Homo sapiens, UniProt Q15047); assay: Epigenetic enzyme assay, Methyltransferases (MTs); format: biochemical; settings: 10 μM; read-out: % Inhibition of Control Values
[7] = test system: Hs695T melanoma cell line; assay: OncoPanel cell proliferation assay (10-day); format: cell-based; settings: Homo sapiens, Hs 695T
[8] = test system: NF-κB; assay: Transcription Response, NF-κB; format: cell-based, Human
Description: (§1) The in vitro pharmacological studies were conducted by Eurofins PanLab (Taiwan) using the parameters shown in Table 13 with respect to appropriate literature references.

[9] = biological target: T3, Histamine H4 (Homo sapiens, UniProt Q9H3N8); assay: Histamine H4 radio ligand binding
T3 construct: expressed in transfected cells; host or cells: Chem-1 cells
T3 sequence (Q9H3N8 whole entry): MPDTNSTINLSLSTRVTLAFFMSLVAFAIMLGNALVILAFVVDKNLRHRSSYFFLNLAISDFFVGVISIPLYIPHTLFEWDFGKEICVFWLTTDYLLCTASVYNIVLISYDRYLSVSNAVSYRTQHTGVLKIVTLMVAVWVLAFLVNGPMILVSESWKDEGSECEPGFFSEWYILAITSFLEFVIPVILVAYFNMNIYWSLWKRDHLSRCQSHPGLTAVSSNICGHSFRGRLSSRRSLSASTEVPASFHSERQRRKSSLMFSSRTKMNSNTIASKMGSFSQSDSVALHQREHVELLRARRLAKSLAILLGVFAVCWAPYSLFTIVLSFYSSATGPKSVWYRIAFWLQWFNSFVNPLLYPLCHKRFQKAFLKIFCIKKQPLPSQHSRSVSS
Description: as §1

[10] = biological target: T4, BAZ2B (h) bromodomain (Homo sapiens, UniProt Q9UIF8); assay: Epigenetic binding assay, Bromodomain; settings: read-out: % Inhibition of Control Specific Binding
T4 construct: Bromodomain
T4 sequence (Q9UIF8 2060-2164 limits assumed): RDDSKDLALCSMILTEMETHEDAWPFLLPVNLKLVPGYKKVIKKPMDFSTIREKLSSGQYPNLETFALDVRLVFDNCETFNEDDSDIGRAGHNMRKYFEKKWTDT

[11] = biological target: PRMT3 (h) (Homo sapiens, UniProt O60678); assay: Epigenetic enzyme assay, Methyltransferases (MTs); format: biochemical; settings: 10 μM; read-out: % Inhibition of Control Values
Chain of PRMT3 (h) (O60678 whole entry): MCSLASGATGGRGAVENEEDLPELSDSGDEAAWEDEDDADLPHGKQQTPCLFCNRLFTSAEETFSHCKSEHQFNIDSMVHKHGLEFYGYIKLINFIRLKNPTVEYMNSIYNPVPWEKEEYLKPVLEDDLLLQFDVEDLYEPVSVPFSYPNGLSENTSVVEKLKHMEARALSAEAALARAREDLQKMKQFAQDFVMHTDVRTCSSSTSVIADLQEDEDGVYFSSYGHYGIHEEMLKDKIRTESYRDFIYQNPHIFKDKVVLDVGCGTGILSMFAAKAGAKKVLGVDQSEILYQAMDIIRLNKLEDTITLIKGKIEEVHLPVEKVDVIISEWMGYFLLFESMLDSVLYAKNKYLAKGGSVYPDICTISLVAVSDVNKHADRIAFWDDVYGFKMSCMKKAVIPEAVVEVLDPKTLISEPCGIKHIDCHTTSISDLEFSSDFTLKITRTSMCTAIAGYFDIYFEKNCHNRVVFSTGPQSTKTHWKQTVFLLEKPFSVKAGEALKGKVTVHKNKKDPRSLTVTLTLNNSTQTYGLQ

[12] = biological target: T5, Phenylethanolamine N-methyltransferase (h) (Homo sapiens, UniProt P11086); assay: Epigenetic enzyme assay, Small molecule methyltransferases; format: biochemical; settings: read-out: % Inhibition of Control Values
T5 sequence (P11086 1-282): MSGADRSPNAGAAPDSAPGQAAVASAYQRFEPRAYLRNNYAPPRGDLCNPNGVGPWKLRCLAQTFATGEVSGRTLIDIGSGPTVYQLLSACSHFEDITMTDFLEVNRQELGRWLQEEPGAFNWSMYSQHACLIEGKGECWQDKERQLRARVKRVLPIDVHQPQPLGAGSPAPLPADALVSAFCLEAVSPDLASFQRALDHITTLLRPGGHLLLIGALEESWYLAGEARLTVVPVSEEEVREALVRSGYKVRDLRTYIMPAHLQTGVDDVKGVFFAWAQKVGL

[13] = biological target: hSMYD2 (Homo sapiens, UniProt Q9NRG4); assay: Epigenetic enzyme assay, Methyltransferases (MTs); format: biochemical; settings: 10 μM; read-out: % Inhibition of Control Values
Chain of hSMYD2 (Q9NRG4 whole entry): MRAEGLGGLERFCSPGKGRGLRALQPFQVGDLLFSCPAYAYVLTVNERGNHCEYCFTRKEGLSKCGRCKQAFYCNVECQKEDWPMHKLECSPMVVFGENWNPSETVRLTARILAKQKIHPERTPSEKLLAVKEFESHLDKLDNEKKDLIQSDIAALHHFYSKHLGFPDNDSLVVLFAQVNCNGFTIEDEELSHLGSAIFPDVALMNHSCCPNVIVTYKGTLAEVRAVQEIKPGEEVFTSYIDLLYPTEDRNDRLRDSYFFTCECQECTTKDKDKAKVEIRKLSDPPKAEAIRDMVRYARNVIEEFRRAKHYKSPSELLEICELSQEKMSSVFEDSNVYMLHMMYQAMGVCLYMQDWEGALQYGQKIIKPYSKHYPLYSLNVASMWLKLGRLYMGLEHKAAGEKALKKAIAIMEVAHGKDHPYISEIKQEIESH

[14] = biological target: T6, CECR2 (h) bromodomain (Homo sapiens, UniProt Q9BXF3); assay: Epigenetic binding assay, Bromodomain; settings: for inhibition at 10 µM: read-out: % Inhibition of Control Specific Binding
T6 construct: CECR2(h) bromodomain
T6 sequence (Q9BXF3 434-538 limits assumed): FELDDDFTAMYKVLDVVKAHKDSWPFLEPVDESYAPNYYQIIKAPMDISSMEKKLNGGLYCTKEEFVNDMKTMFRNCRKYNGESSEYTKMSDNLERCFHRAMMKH

[15] = test system: Rat L6 skeletal muscle cells; assay: [3H]-2-Deoxy-D-glucose uptake; format: cell-based; settings: 10 μM; assay year 2016
Description: as §1

[16] = biological target: T7, Protein Tyrosine Phosphatase, PTPN1 (PTP1B) (Homo sapiens, UniProt P18031); assay: Protein Tyrosine Phosphatase, PTPN1 (PTP1B); format: biochemical; settings: assay year 2015, read-out: % Control Response
T7 construct: host or cells: E. coli
T7 sequence (P18031 1-435): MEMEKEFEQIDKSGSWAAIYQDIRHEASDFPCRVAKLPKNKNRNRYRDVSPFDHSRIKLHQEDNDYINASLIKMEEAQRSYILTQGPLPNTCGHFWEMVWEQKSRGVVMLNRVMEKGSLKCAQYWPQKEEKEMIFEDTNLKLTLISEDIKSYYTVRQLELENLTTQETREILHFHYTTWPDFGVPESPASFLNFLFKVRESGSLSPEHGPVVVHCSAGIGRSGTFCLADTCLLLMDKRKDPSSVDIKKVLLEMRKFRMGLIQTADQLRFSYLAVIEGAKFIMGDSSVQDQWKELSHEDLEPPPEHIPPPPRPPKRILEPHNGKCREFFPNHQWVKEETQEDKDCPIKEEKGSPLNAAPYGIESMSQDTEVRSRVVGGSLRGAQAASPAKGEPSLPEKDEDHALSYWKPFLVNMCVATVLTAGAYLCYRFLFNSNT
Description: as §1

[17] = biological target: T8, BRD3(1) (h) bromodomain (Homo sapiens, UniProt Q15059); assay: Epigenetic binding assay, Bromodomain; settings: read-out: % Inhibition of Control Specific Binding
T8 construct: Bromodomain
T8 sequence (Q15059 34-140 limits assumed): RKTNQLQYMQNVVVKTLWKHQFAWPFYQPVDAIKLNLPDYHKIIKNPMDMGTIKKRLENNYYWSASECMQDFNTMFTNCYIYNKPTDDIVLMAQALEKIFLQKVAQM

[18] = assay year 2015, read-out: % Control Response

Question: CC(C)=CCC[C@H](CO)[C@@H]1CC[C@@H](C)c2c1cc(C)c(O)c2O [Compound 1, 7,8,18-trihydroxyserrulat-14-ene] was tested. Which inhibition at 10 µM [1] did it give?
Answer: 40%

Question: What about the “% Cell growth” value [2] of the same compound?
Answer: −90%

Question: What about the inhibition at 10 µM [3] of the same compound?
Answer: 6%

Question: And the “% Inhibition of Control Specific Binding” value ([4]; 10 μM)?
Answer: significant inhibitory activity

Question: And the inhibition at 10 µM ([4]; 10 μM)?
Answer: 76%

Question: What about the IC50 ([4]; Table 9, inhibition/concentration-response curve, read-out: IC50) of the same compound?
Answer: 3.9 µM

Question: What about the inhibition at 10 µM [5] of the same compound?
Answer: 3%

Question: What about the inhibition at 10 µM [6] of the same compound?
Answer: 53%

Question: What about the GI50 ([7]; calculated on a weight-weight basis, read-out: GI50) of the same compound?
Answer: 0.37 µg/mL

Question: What about the EC50 ([7]; Skin (Melanoma), read-out: Cell Count EC50) of the same compound?
Answer: 1.18 µM

Question: And the GI50 ([7]; Skin (Melanoma), read-out: Cell Count GI50)?
Answer: 1.16 µM

Question: And the IC50 ([7]; Skin (Melanoma), read-out: Cell Count IC50)?
Answer: 1.27 µM

Question: What about the “Resp Av %” value ([8]; Antagonist, Conc 0.001 μM) of the same compound?
Answer: −25%

Question: What about the “Resp Av %” value ([8]; Antagonist, Conc 0.01 μM) of the same compound?
Answer: −5%

Question: What about the “Resp Av %” value ([8]; Antagonist, Conc 0.1 μM) of the same compound?
Answer: 0%

Question: And the “Resp Av %” value ([8]; Antagonist, Conc 1 μM)?
Answer: 17%

Question: What about the “Resp Av %” value ([8]; Antagonist, Conc 10 μM) of the same compound?
Answer: 103%

Question: And the IC50 ([8]; Homo sapiens, Antagonist)?
Answer: 1.4 µM

Question: What about the IC50 ([8]; Homo sapiens, transcription response NF-κB) of the same compound?
Answer: 1.36 µM

Question: And the IC50 ([8]; transcription response NF-κB)?
Answer: 0.69 µM

Question: And the remaining activity at 10 µM ([9]; assay year 2014, read-out: % Control Response)?
Answer: 50%

Question: And the remaining activity at 10 µM [9, 18]?
Answer: 12%

Question: And the inhibition at 10 µM [10]?
Answer: 58%

Question: And the inhibition at 10 µM [11]?
Answer: 22%

Question: And the inhibition at 10 µM [12]?
Answer: 23%

Question: And the inhibition at 10 µM [13]?
Answer: 12%

Question: What about the “% Inhibition of Control Specific Binding” value ([14]; 10 μM) of the same compound?
Answer: significant inhibitory activity

Question: And the inhibition at 10 µM ([14]; 10 μM)?
Answer: 100%

Question: And the “inhibition of binding, 1st” value ([14]; 3.0E−05M)?
Answer: 99.4

Question: What about the “inhibition of binding, 2nd” value ([14]; 3.0E−05M) of the same compound?
Answer: 99.6

Question: What about the “inhibition of binding, Mean” value ([14]; 3.0E−05M) of the same compound?
Answer: 99.5

Question: What about the “inhibition of binding, 1st” value ([14]; 3.0E−06M) of the same compound?
Answer: 7.3

Question: What about the “inhibition of binding, 2nd” value ([14]; 3.0E−06M) of the same compound?
Answer: 8.6

Question: And the “inhibition of binding, Mean” value ([14]; 3.0E−06M)?
Answer: 7.9

Question: What about the “inhibition of binding, 1st” value ([14]; 3.0E−07M) of the same compound?
Answer: −1.5

Question: What about the “inhibition of binding, 2nd” value ([14]; 3.0E−07M) of the same compound?
Answer: 0.9

Question: What about the “inhibition of binding, Mean” value ([14]; 3.0E−07M) of the same compound?
Answer: −0.3

Question: And the “inhibition of binding, 1st” value ([14]; 3.0E−08M)?
Answer: −0.9

Question: What about the “inhibition of binding, 2nd” value ([14]; 3.0E−08M) of the same compound?
Answer: −1.7

Question: What about the “inhibition of binding, Mean” value ([14]; 3.0E−08M) of the same compound?
Answer: −1.3

Question: What about the “inhibition of binding, 1st” value ([14]; 3.0E−09M) of the same compound?
Answer: 5.9

Question: What about the “inhibition of binding, 2nd” value ([14]; 3.0E−09M) of the same compound?
Answer: 2.4

Question: And the “inhibition of binding, Mean” value ([14]; 3.0E−09M)?
Answer: 4.2

Question: What about the IC50 ([14]; Table 9, inhibition/concentration-response curve) of the same compound?
Answer: 5 µM

Question: What about the “% Control Response, agonist (increase in 2-DG uptake relative to insulin response)” value [15] of the same compound?
Answer: −61%

Question: And the remaining activity at 10 µM [16]?
Answer: 20%

Question: And the inhibition at 10 µM [17]?
Answer: 47%

Question: How did the inhibition at 10 µM [1] turn out when CC(C)=CCC[C@@H]1COc2c(C)cc(O)c3c2[C@H]1CC[C@H]3C [Compound 3, 5,18-epoxy-8-hydroxyserrulat-14-ene] was run?
Answer: 19%

Question: And the “% Cell growth” value [2]?
Answer: 91%

Question: And the inhibition at 10 µM [3]?
Answer: 10%

Question: What about the inhibition at 10 µM ([4]; 10 μM) of the same compound?
Answer: 18%

Question: And the inhibition at 10 µM [5]?
Answer: -31%

Question: What about the inhibition at 10 µM [6] of the same compound?
Answer: 52%

Question: What about the “Resp Av %” value ([8]; Antagonist, Conc 0.001 μM) of the same compound?
Answer: −16%

Question: And the “Resp Av %” value ([8]; Antagonist, Conc 0.01 μM)?
Answer: −11%

Question: And the “Resp Av %” value ([8]; Antagonist, Conc 0.1 μM)?
Answer: −7%

Question: And the “Resp Av %” value ([8]; Antagonist, Conc 1 μM)?
Answer: 1%

Question: And the “Resp Av %” value ([8]; Antagonist, Conc 10 μM)?
Answer: −19%

Question: What about the IC50 ([8]; Homo sapiens, Antagonist) of the same compound?
Answer: > 10 µM

Question: What about the remaining activity at 10 µM [9, 18] of the same compound?
Answer: 10%

Question: What about the inhibition at 10 µM [10] of the same compound?
Answer: 21%

Question: And the inhibition at 10 µM [11]?
Answer: 14%

Question: What about the inhibition at 10 µM [12] of the same compound?
Answer: 5%

Question: And the inhibition at 10 µM [13]?
Answer: -12%

Question: And the inhibition at 10 µM ([14]; 10 μM)?
Answer: 15%

Question: And the “% Control Response, agonist (increase in 2-DG uptake relative to insulin response)” value [15]?
Answer: −52%

Question: What about the remaining activity at 10 µM [16] of the same compound?
Answer: -3%

Question: And the inhibition at 10 µM [17]?
Answer: 13%

Source: US11331299B2, “Medicinal use of serrulatane diterpenes” (The University of Sydney, priority 2016, dated 2022)
